The values below come from patent publication US6967102B1, “Nitric oxide manipulation of muscle satellite cell activation” (University of Manitoba, priority 1999, dated 2005).

Entries after “also recorded” stand apart in the source; their conditions may differ.

Assay [1] has as its system satellite cells. The assay can be described thus: Cell yield time course 0–30 min after crush injury of right tibialis anterior, normal mice. The format is in vivo, normal mice (C57BL/6). The conditions noted are these: L-Arg 225 mg/kg ip 30 min before crush; 0–30 min.
Assay [2] is described as follows: Muscle weight to body weight (edema) and haemorrhage after crush injury, normal mice. Type of assay: in vivo, normal mice (C57BL/6). Conditions: ip treatment 30 min before crush; 0–30 min after injury.
Assay [3] concerns satellite cells. The assay can be described thus: Isolated single muscle fiber culture, BrdU incorporation by satellite cells (activation). Type of assay: cell-based, C57 mice. The text has this: (§1) Flexor digitorum brevis (FDB) muscles from normal C57 mice were dissected from the foot, and connective tissue, vessels and nerves were cleaned off the muscle. Following a 3 hr collagenase digestion (0.2% in DMEM), and viewed on a dissecting microscope, the muscle was separated into three bundles and the overlying connective tissue was peeled off the bundles using sharp forceps. The individual fibers were then teased off the remnant tendon and into smaller bundles. Bundles were gently triturated to separate single fibers using a wide mouth glass pipette with a polished end. The fibers were plated onto vitrogen-coated 35 mm dishes and grown in 1.5 ml of DMEM+10% Horse Serum (HS)+1% antimyotics+0.1% gentamycin.
Live fibers exclude Ethidium bromide (EtBr), but 5 minutes after adding a myotoxin called marcaine (Bischoff R. (1990b). Development 109:943–952) to the medium, nuclei in fibers (and not in satellite cells) are fluorescent for EtBr. Hypercontraction occurs another 5–10 min later. Satellite cells exclude EtBr but take up an indicator of live cells, fluoresceine diacetate (FDA). Without this characterization, observations on satellite cells in a culture could include artefacts from membrane damage that initiates activation differently than any treatment under study. Satellite cells on our intact fibers were also quiescent after isolation. […] This conclusion is critical to any studies that propose to examine activation signals and their regulation.
Experimental Protocol: Fibers are isolated from flexor digitorum brevis (FDB) muscles on the plantar foot of 3 mice, then digested in collagenase (0.2% for 3 hr) and separated under a stereo microscope into small bundles (Yablonka-Reuveni, Z. and Rivera AJ. (1994). Dev. Biol. 164:588–603). […]
Fibers are incubated in 20% serum replacement medium (CSR; Yablonka-Reuveni, Z, and Rivera A J. (1994). Dev. Biol. 164:588–603). […] Activation is measured by counting labelled satellite cells per fiber (150–250 fibers/dish). […]
For orientation: Incorporation of labelled thymidine or its analogues reports DNA synthesis.

For the next assay, the system named is muscle fibers. Description: Marcaine / ethidium bromide staining and hypercontraction of isolated muscle fibers. The format is cell-based, C57 mice.
From the text: as §1
Marcaine, an anaesthetic, was previously used to kill live fibers by adding it to a dish for 20–30 minutes (Cornelison, D. D. W., and Wold, B. J. (1997). Dev. Biol. 191:270–283) but the exact time of fiber death was never identified. Ethidium bromide (EtBr) is a fluorescent chemical which intercalates into the DNA of dead cells but is not taken up into live fibers. Media was mostly decanted from freshly plated fibers and the fibers were located using a microscope. 2–3 drops of either EtBr (2.5 μg/ml) in DMEM or Marcaine (0.05%)+EtBr (2.5 μg/ml) in DMEM were then added to the dish under continuous observation. Fiber hypercontraction was observed using a phase lens and the time course of EtBr nuclear staining was observed under UV light using a red filter. Photographs (ASA400 Fuji Colour Film) were taken to record staining of live, fixed, EtBr and Marcaine treated fibers and nuclei.

The next assay deals with dystrophic muscle. Description: Central nucleation index (CNI) in LTA and diaphragm of treated mdx mice. Type of assay: in vivo. The conditions noted are these: mdx mice treated from 4–8 weeks of age; for CNI (central nucleation index) in DIA: diaphragm; for CNI (central nucleation index) in LTA: left tibialis anterior. The text has this:
A study of 4 groups (n≈10/group) of mdx dystrophic mice treated with placebo, deflazacort, deflazacort plus L-NAME (a NOS inhibitor), or deflazacort plus L-arginine (a […]). Deflazacort was given by daily injection (ip) and L-NAME and L-arginine were given systemically in the drinking water.
When a normal peripherally nucleated myofiber degenerates, muscle precursor cells proliferate to varying extents (Grounds Md., McGeachie J K. (1989). Exp. Cell Res 180:429–439) and fuse to form centrally nucleated myotubes. These myotubes grow, or even hypertrophy compared to the original distribution of fiber size in that muscle, and span the injured area, (Anderson J E, Ovalle W K, Bressler B H. (1987). Anat. Rec. 219:243–257; Anderson J E, Bressler B H, Ovalle W K. (1988). J. Muscle Res. Cell Motil. 9:499–515; Ontell M, Feng K C, Klueber K, Dunn R F, Taylor F. (1984). Anat. Rec. 208:159 174) but remain centrally nucleated; thus the central nucleation index (CNI) is a useful measure of accumulated damage and repair. (Karpati G, Carpenter S. (1988). Muscle Nerve. 11:795–803). The CNI is a measurement well known in the art (see Karpati and Carpenter. 1988. Muscle Nerve. 11:795–803 and Anderson et al. 1996. Muscle Nerve. 19:1576–1585).
CNI is the proportion of all fibers in a section or a muscle which show a centrally-located nucleus (often given as a percentage). Since muscular dystrophy causes ongoing damage of muscle fibers, the successful repair of those fibers is marked by centrally-nucleated fibers which accumulate as a proportion of total fibers. Unsuccessful repair can be viewed as a loss of fibers in a section of a whole muscle; this too can produce a change in the ratio of centrally nucleated to total number of fibers (expressed as a percentage).
In this experiment, muscle tissues are collected from the treated animals. LTA and diaphragm muscles were sectioned, and counts of fibers with central nuclei and fibers with peripheral nuclei were performed. The largest diameter of the muscle section in each of the two sections of each muscle was used for counting, for 10 mice per group (2 muscles per mouse).
This is similar for the tibialis anterior muscle (LTA) and diaphragm at the age shown in the graph (which is 8 weeks of age) and is reliably used to monitor the progressive effect of dystrophic fiber injury on a muscle over time as the disease progresses. CNI will increase with age in the mdx mice (until the plateau discussed above). Mice are treated from 4–8 weeks of age with placebo, Deflazacort, D+L-NAME or D+L-Arginine.

The subject of a further assay is muscle precursor cells. The conditions noted are these: deflazacort treatment on mdx mice; cited from earlier work.
Setting [4] is: Marcaine (0.05%)+EtBr (2.5 μg/ml) in DMEM.

In the case of `N=C(N)NCCC[C@H](N)C(=O)O` [L-Arg, L-arginine], in the assay with satellite cells [1], the RSOL cell counts entry is reported as “unchanged”; the “RTA cell yield time course” value was “rose sharply at 5 min., and also stayed high”. Moreover, the “muscle weight profile (RTA relative to LTA; muscle weight as proportion of body weight)” value in assay [2] is listed as “little or no change in muscle weight profile”. Besides, the “concentration showing maximal activation” value in the assay with satellite cells [3] (L-Arginine 50–1000 nM, initial results) turned out to be 500 nM. Besides, in the assay on satellite cells [3] (single normal fibers, L-arginine at various concentrations, 48 hr), the “satellite cell activation (marked by DNA synthesis)” value is on record as “stimulates activation in a dose-dependent manner”. In the assay with satellite cells [3] (single normal fibers, L-arginine, 48 hr), the “satellite cell migration away from fibers” value is listed as “stimulates satellite cell migration away from fibers”.
For `CCCCN1CCCCC1C(=O)Nc1c(C)cccc1C` (stereo not drawn) [Marcaine], in the assay on muscle fibers (setting [4]), the “time to EtBr staining of nuclei of live fibers after Marcaine” value is 60 to 90 s and the “time to fiber hypercontraction” value lay within 5 to 10 min. Besides, in the assay with muscle fibers (marcaine added to the medium), the “further time until hypercontraction after nuclei fluoresce” value fell in the range of 5 to 10 min and the “time after adding marcaine at which nuclei in fibers are fluorescent for EtBr” value turned out to be 5 min.
`CC(=O)OCC(=O)[C@@]12N=C(C)O[C@@H]1C[C@H]1[C@@H]3CCC4=CC(=O)C=C[C@]4(C)[C@H]3[C@@H](O)C[C@@]12C` [deflazacort]: in the assay with dystrophic muscle, the “CNI (central nucleation index) in DIA” value is recorded as “significantly lower CNI after deflazacort” and the “CNI (central nucleation index) in LTA” value is 0.4. Besides, the “increase in precursor cell proliferation and formation of new muscle fibers” value in the assay with muscle precursor cells is reported as 1.5–2 fold.
Turning to D+L-Arginine, in the assay on dystrophic muscle, the “CNI (central nucleation index) in DIA” value is given as “decrease the CNI of DIA from the level seen with D+L-NAME” and the “CNI (central nucleation index) in LTA” value is “increase in LTA CNI from deflazacort alone; also recorded: still significantly lower than placebo treatment”.
